The values below are quoted from earlier work in patent publication US20250275939A1, “CO-CRYSTALS” (UNIVERSITY OF IOWA RESEARCH FOUNDATION, priority 2024, published 2025).

Read-outs that look alike come from different tables or passages of the source. Peptide text beside a SMILES is read from it.

The conditions of series [1]: in vivo.
For series [2] the following is noted: in vivo. This is another data set of the same source.
The conditions of series [3]: humans, after a single oral dose.
For series [4] the following is noted: humans, adults and children.

For `C1N2CN3CN1CN(C2)C3` [Methenamine], in series [1], the “serum enzyme elevations / clinically apparent acute liver injury” value was “has not been linked to serum enzyme elevations or to instances of clinically apparent acute liver injury”. With `Cc1nc(C)c(C)nc1C` [TMP, tetramethyl pyrazine], the “penetration of the blood-brain barrier” value in series [2] is “can penetrate the blood-brain barrier”. As to `O=c1c(O)c(-c2ccc(O)c(O)c2)oc2cc(O)cc(O)c12` [quercetin, Quercetin], in series [3], the oral bioavailability is roughly 2%. As for `COC(=O)[C@H](Cc1ccccc1)NC(=O)[C@@H](N)CC(=O)O` [aspartame, Aspartame] (H-Asp-Phe-OMe), the acceptable daily intake in series [4] (Europe) is 40 mg/kg bodyweight; in series [4] (United States), 50 mg/kg bodyweight.
